Laboratory results as given in patent US20150105252A1, “SUBSTITUTED PYRAZOLES AS HERBICIDES” (E I DU PONT DE NEMOURS AND COMPANY, priority 2013, published 2015).

Columns and labels:
crabgrass, large = assay: Test A preemergence; assay type: in vivo, Digitaria sanguinalis; details: preemergence; for Crabgrass, Large plant response rating (0 to 100 scale): 125 g ai/ha, visual injury approx. 10 days after treatment; for Crabgrass, Large plant response rating: 500 g ai/ha, visual injury after approx. 10 days, 0 to 100 scale (0 no effect, 100 complete control)
Outline: (§1)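 Growth medium: loam soil blended with sand. Preemergence treatment used a directed soil spray right after planting; postemergence treatment targeted seedlings at one to two leaves (2–10 cm height). Response was judged by eye relative to untreated plants about 10 days later on a 0–100 control scale.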

wheat = assay: Test A preemergence; assay type: in vivo, Triticum aestivum; details: preemergence; for Wheat plant response rating (0 to 100 scale): 125 g ai/ha, visual injury approx. 10 days after treatment; for Wheat plant response rating: 500 g ai/ha, visual injury after approx. 10 days, 0 to 100 scale (0 no effect, 100 complete control)
Outline: as §1

morningglory = assay: Test A postemergence; assay type: in vivo, Ipomoea spp.; details: Postemergence
Outline: as §1

ragweed [1] = assay: Test C preemergence; assay type: in vivo, Ambrosia elation; details: preemergence; for Plant response rating, Ragweed: 125 g ai/ha, scale 0 to 100, 0 = no effect, 100 = complete control
Outline: (§2)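 Postemergence values come from plants sprayed at the 1- to 4-leaf stage (2–18 cm) in peat moss–vermiculite medium; preemergence values from seeds treated in a loam–sand blend. Both evaluated visually against controls after 13–15 greenhouse days, scale 0–100.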

soybean [2] = assay: Test C preemergence; assay type: in vivo, Glycine max; details: preemergence; for Plant response rating, Soybean: 125 g ai/ha, scale 0 to 100, 0 = no effect, 100 = complete control
Outline: as §2

barnyardgrass = assay: Test C preemergence; assay type: in vivo, Echinochloa crus-galli; details: preemergence; for Plant response rating, Barnyardgrass: 125 g ai/ha, scale 0 to 100, 0 = no effect, 100 = complete control
Outline: as §2

waterhemp = assay: Test C preemergence; assay type: in vivo, Amaranthus rudis; details: preemergence; for Plant response rating, Waterhemp: 125 g ai/ha, scale 0 to 100, 0 = no effect, 100 = complete control
Outline: as §2

velvetleaf = assay: Test C preemergence; assay type: in vivo, Abutilon theophrasti; details: preemergence; for Plant response rating, Velvetleaf: 125 g ai/ha, scale 0 to 100, 0 = no effect, 100 = complete control
Outline: as §2

ryegrass, Italian = assay: Test C postemergence; assay type: in vivo, Lolium multiflorum; details: postemergence
Outline: as §2

corn = assay: Test C postemergence; assay type: in vivo, Zea mays; details: for Plant response rating (scale of 0 to 100 where 0 is no effect and 100 is complete control), Corn: Postemergence, 31 g ai/ha, visually evaluated after 13 to 15 days; for Corn plant response rating / Plant response rating, Corn: postemergence; for Corn plant response rating: 62 g ai/ha, scale 0 to 100
Outline: as §2

foxtail, giant = assay: Test C postemergence; assay type: in vivo, Setaria faberii; details: for Plant response rating (scale of 0 to 100 where 0 is no effect and 100 is complete control), Foxtail, Giant: Postemergence, 31 g ai/ha, visually evaluated after 13 to 15 days; for Foxtail, Giant plant response rating / Plant response rating, Foxtail, Giant: postemergence; for Foxtail, Giant plant response rating: 62 g ai/ha, scale 0 to 100
Outline: as §2

johnsongrass = assay: Test C postemergence; assay type: in vivo, Sorghum halepense; details: for Plant response rating (scale of 0 to 100 where 0 is no effect and 100 is complete control), Johnsongrass: Postemergence, 31 g ai/ha, visually evaluated after 13 to 15 days; for Johnsongrass plant response rating / Plant response rating, Johnsongrass: postemergence; for Johnsongrass plant response rating: 62 g ai/ha, scale 0 to 100
Outline: as §2

nutsedge, yellow = assay: Test C postemergence; assay type: in vivo, Cyperus esculentus; details: for Plant response rating (scale of 0 to 100 where 0 is no effect and 100 is complete control), Nutsedge, Yellow: Postemergence, 31 g ai/ha, visually evaluated after 13 to 15 days; for Nutsedge, Yellow plant response rating / Plant response rating, Nutsedge, Yellow: postemergence; for Nutsedge, Yellow plant response rating: 62 g ai/ha, scale 0 to 100
Outline: as §2

ragweed [3] = assay: Test C postemergence; assay type: in vivo, Ambrosia elation; details: postemergence
Outline: as §2

soybean [4] = assay: Test C postemergence; assay type: in vivo, Glycine max; details: postemergence; for Plant response rating, Soybean: 250 g ai/ha, scale 0 to 100 (0 no effect, 100 complete control); for Soybean plant response rating: 125 g ai/ha, scale 0 to 100, 0 no effect, 100 complete control
Outline: as §2

oilseed rape = assay: Test C postemergence; assay type: in vivo, Brassica napus; details: postemergence; for Oilseed Rape plant response rating: 62 g ai/ha, scale 0 to 100
Outline: as §2

[5] = 125 g ai/ha, 0 to 100 scale, 0 no effect, 100 complete control
[6] = 500 g ai/ha, 0 to 100 scale (0 no effect, 100 complete control)
[7] = 31 g ai/ha, visual rating, scale 0 to 100 (0 no effect, 100 complete control), 13 to 15 days
[8] = 62 g ai/ha, scale 0 to 100 (0 no effect, 100 complete control), 13 to 15 days
[9] = 250 g ai/ha, scale 0 to 100, 0 is no effect, 100 is complete control
[10] = 250 g ai/ha, scale 0 to 100 (0 no effect, 100 complete control)
[11] = 125 g ai/ha, scale 0 to 100, 0 no effect, 100 complete control

For `CCOc1cc(C(=O)NC(C)C)nn1Cc1ccnc(C(F)(F)F)c1` [Compound 188], the “Crabgrass, Large plant response rating (0 to 100 scale)” value (crabgrass, large) was 100, the “Crabgrass, Large plant response rating” value (crabgrass, large) was 100 and the “Wheat plant response rating (0 to 100 scale)” value (wheat) was 100. For the same molecule, the “Wheat plant response rating” value (wheat) was 100, the “Morningglory plant response rating” value (morningglory; [5]) was 70 and the “Morningglory plant response rating” value (morningglory; [6]) was 100. The “Ragweed plant response rating” value (ragweed [1]; [7]) was 75, the “Ragweed plant response rating” value (ragweed [1]; [8]) was 95 and the “Plant response rating, Ragweed” value (ragweed [1]; 13 to 15 days) was 100. For the same molecule, the “Ragweed plant response rating” value (ragweed [1]; [9]) was 98, the “Soybean plant response rating” value (soybean [2]; [7]) was 90 and the “Soybean plant response rating” value (soybean [2]; [8]) was 90. The “Plant response rating, Soybean” value (soybean [2]; 13 to 15 days) was 95, the “Soybean plant response rating” value (soybean [2]; [9]) was 98 and the “Barnyardgrass plant response rating” value (barnyardgrass; [7]) was 100. For the same molecule, the “Barnyardgrass plant response rating” value (barnyardgrass; [8]) was 100, the “Plant response rating, Barnyardgrass” value (barnyardgrass; 13 to 15 days) was 100 and the “Barnyardgrass plant response rating” value (barnyardgrass; [9]) was 100. For the same molecule, the “Waterhemp plant response rating” value (waterhemp; [7]) was 100, the “Waterhemp plant response rating” value (waterhemp; [8]) was 100 and the “Plant response rating, Waterhemp” value (waterhemp; 13 to 15 days) was 100. For the same molecule, the “Waterhemp plant response rating” value (waterhemp; [9]) was 100, the “Velvetleaf plant response rating” value (velvetleaf; [7]) was 100 and the “Velvetleaf plant response rating” value (velvetleaf; [8]) was 100. For the same molecule, the “Plant response rating, Velvetleaf” value (velvetleaf; 13 to 15 days) was 100, the “Velvetleaf plant response rating” value (velvetleaf; [9]) was 100 and the “Plant response rating, Ryegrass, Italian” value (ryegrass, Italian; [10]) was 35. The “Plant response rating, Ryegrass, Italian” value (ryegrass, Italian; [11]) was 20, the “Plant response rating (scale of 0 to 100 where 0 is no effect and 100 is complete control), Corn” value (corn) was 5 and the “Corn plant response rating” value (corn) was 55. For the same molecule, the “Plant response rating, Corn” value (corn; [10]) was 60, the “Plant response rating, Corn” value (corn; [11]) was 20 and the “Plant response rating (scale of 0 to 100 where 0 is no effect and 100 is complete control), Foxtail, Giant” value (foxtail, giant) was 5. The “Foxtail, Giant plant response rating” value (foxtail, giant) was 40, the “Plant response rating, Foxtail, Giant” value (foxtail, giant; [10]) was 90 and the “Plant response rating, Foxtail, Giant” value (foxtail, giant; [11]) was 60. For the same molecule, the “Plant response rating (scale of 0 to 100 where 0 is no effect and 100 is complete control), Johnsongrass” value (johnsongrass) was 0, the “Johnsongrass plant response rating” value (johnsongrass) was 0 and the “Plant response rating, Johnsongrass” value (johnsongrass; [10]) was 65. For the same molecule, the “Plant response rating, Johnsongrass” value (johnsongrass; [11]) was 50, the “Plant response rating (scale of 0 to 100 where 0 is no effect and 100 is complete control), Nutsedge, Yellow” value (nutsedge, yellow) was 5 and the “Nutsedge, Yellow plant response rating” value (nutsedge, yellow) was 35. For the same molecule, the “Plant response rating, Nutsedge, Yellow” value (nutsedge, yellow; [10]) was 10, the “Plant response rating, Nutsedge, Yellow” value (nutsedge, yellow; [11]) was 5 and the “Plant response rating, Ragweed” value (ragweed [3]; [10]) was 90. The “Plant response rating, Ragweed” value (ragweed [3]; [11]) was 85, the “Plant response rating, Soybean” value (soybean [4]) was 98 and the “Soybean plant response rating” value (soybean [4]) was 95. For the same molecule, the “Oilseed Rape plant response rating” value (oilseed rape) was 60, the “Plant response rating, Oilseed Rape” value (oilseed rape; [10]) was 90 and the “Plant response rating, Oilseed Rape” value (oilseed rape; [11]) was 70.

With `CCOc1cc(C(=O)NC2CC2)nn1Cc1ccnc(C(F)(F)F)c1` [Compound 189] the “Crabgrass, Large plant response rating (0 to 100 scale)” value (crabgrass, large) was 100, the “Crabgrass, Large plant response rating” value (crabgrass, large) was 100 and the “Wheat plant response rating (0 to 100 scale)” value (wheat) was 90. The “Wheat plant response rating” value (wheat) was 100, the “Morningglory plant response rating” value (morningglory; [5]) was 90 and the “Morningglory plant response rating” value (morningglory; [6]) was 100. The “Ragweed plant response rating” value (ragweed [1]; [7]) was 85, the “Ragweed plant response rating” value (ragweed [1]; [8]) was 98 and the “Plant response rating, Ragweed” value (ragweed [1]; 13 to 15 days) was 100. The “Ragweed plant response rating” value (ragweed [1]; [9]) was 98, the “Soybean plant response rating” value (soybean [2]; [7]) was 20 and the “Soybean plant response rating” value (soybean [2]; [8]) was 95. For the same molecule, the “Plant response rating, Soybean” value (soybean [2]; 13 to 15 days) was 98, the “Soybean plant response rating” value (soybean [2]; [9]) was 98 and the “Barnyardgrass plant response rating” value (barnyardgrass; [7]) was 95. The “Barnyardgrass plant response rating” value (barnyardgrass; [8]) was 100, the “Plant response rating, Barnyardgrass” value (barnyardgrass; 13 to 15 days) was 100 and the “Barnyardgrass plant response rating” value (barnyardgrass; [9]) was 100. The “Waterhemp plant response rating” value (waterhemp; [7]) was 100, the “Waterhemp plant response rating” value (waterhemp; [8]) was 100 and the “Plant response rating, Waterhemp” value (waterhemp; 13 to 15 days) was 100. For the same molecule, the “Waterhemp plant response rating” value (waterhemp; [9]) was 100, the “Velvetleaf plant response rating” value (velvetleaf; [7]) was 98 and the “Velvetleaf plant response rating” value (velvetleaf; [8]) was 100. For the same molecule, the “Plant response rating, Velvetleaf” value (velvetleaf; 13 to 15 days) was 100, the “Velvetleaf plant response rating” value (velvetleaf; [9]) was 100 and the “Plant response rating, Ryegrass, Italian” value (ryegrass, Italian; [10]) was 40. For the same molecule, the “Plant response rating, Ryegrass, Italian” value (ryegrass, Italian; [11]) was 5, the “Plant response rating (scale of 0 to 100 where 0 is no effect and 100 is complete control), Corn” value (corn) was 5 and the “Corn plant response rating” value (corn) was 10. For the same molecule, the “Plant response rating, Corn” value (corn; [10]) was 60, the “Plant response rating, Corn” value (corn; [11]) was 10 and the “Plant response rating (scale of 0 to 100 where 0 is no effect and 100 is complete control), Foxtail, Giant” value (foxtail, giant) was 10. For the same molecule, the “Foxtail, Giant plant response rating” value (foxtail, giant) was 10, the “Plant response rating, Foxtail, Giant” value (foxtail, giant; [10]) was 75 and the “Plant response rating, Foxtail, Giant” value (foxtail, giant; [11]) was 25. The “Plant response rating (scale of 0 to 100 where 0 is no effect and 100 is complete control), Johnsongrass” value (johnsongrass) was 0, the “Johnsongrass plant response rating” value (johnsongrass) was 15 and the “Plant response rating, Johnsongrass” value (johnsongrass; [10]) was 35. For the same molecule, the “Plant response rating, Johnsongrass” value (johnsongrass; [11]) was 5, the “Plant response rating (scale of 0 to 100 where 0 is no effect and 100 is complete control), Nutsedge, Yellow” value (nutsedge, yellow) was 5 and the “Nutsedge, Yellow plant response rating” value (nutsedge, yellow) was 5. The “Plant response rating, Nutsedge, Yellow” value (nutsedge, yellow; [10]) was 20, the “Plant response rating, Nutsedge, Yellow” value (nutsedge, yellow; [11]) was 5 and the “Plant response rating, Ragweed” value (ragweed [3]; [10]) was 90. For the same molecule, the “Plant response rating, Ragweed” value (ragweed [3]; [11]) was 75, the “Plant response rating, Soybean” value (soybean [4]) was 95 and the “Soybean plant response rating” value (soybean [4]) was 95. The “Oilseed Rape plant response rating” value (oilseed rape) was 60, the “Plant response rating, Oilseed Rape” value (oilseed rape; [10]) was 90 and the “Plant response rating, Oilseed Rape” value (oilseed rape; [11]) was 65.
